Data reported in ChEMBL document CHEMBL4619760, “Anti-inflammatory Efficacy of Combined Natural Alkaloid Berberine and S1PR Modulator Fingolimod at Low Doses in Ulcerative Colitis Preclinical Models” (J Nat Prod, 2020).
The source made the active and inactive calls. The rule behind the calls is not given here.

Legend:
Mus musculus [1] = assay: Anti-colitis activity against DSS-induced C57BL/6 mouse model of subchronic relapsing colitis assessed as reduction in stool consistency scores at 0.3 mg/kg, po administered once daily for 14 days starting from day 5 post DSS challenge and measured on day 19; assay type: functional, organism-based
Mus musculus [2] = assay: Anti-colitis activity against DSS-induced C57BL/6 mouse model of subchronic relapsing colitis assessed as reduction in disease activity index at 0.3 mg/kg, po administered once daily for 14 days starting from day 5 post DSS challenge and measured on day 19; assay type: functional, organism-based
Mus musculus [3] = assay: (§1) Anti-colitis activity against DSS-induced C57BL/6 mouse model of subchronic relapsing colitis assessed as reduction in disease activity index at 0.15 mg/kg, po administered once daily for 14 days starting from day 5 post DSS-challenge cotreated with 20 mg/kg berberine measured after day 12 to day 18; assay type: functional, organism-based
Mus musculus [4] = assay: as §1, with “DSS-induced colon shortening” for “disease activity index”, “berberine and” for “berberine”; assay type: functional, organism-based
Mus musculus [5] = assay: Anti-colitis activity against DSS-induced C57BL/6 mouse model of subchronic relapsing colitis assessed as reduction in spleen swelling at 0.15 mg/kg, po administered once daily for 14 days starting from day 5 post DSS-challenge cotreated with 20 mg/kg berberine and measured after day 12 to day 18; assay type: functional, organism-based
Mus musculus [6] = assay: Anti-colitis activity against DSS-induced C57BL/6 mouse model of chronic relapsing colitis assessed as reduction in stool consistency score at 0.3 mg/kg, po administered once daily for 30 days starting from day 13 post DSS-challenge measured on day 24; assay type: functional, organism-based
Mus musculus [7] = assay: Anti-colitis activity against DSS-induced C57BL/6 mouse model of chronic relapsing colitis assessed as reduction in disease activity index at 0.3 mg/kg, po administered once daily for 30 days starting from day 13 post DSS-challenge and measured on day 24; assay type: functional, organism-based
Mus musculus [8] = assay: Anti-colitis activity against DSS-induced C57BL/6 mouse model of chronic relapsing colitis assessed as reduction in stool consistency score at 0.3 mg/kg, po administered once daily for 30 days starting from day 13 post DSS-challenge measured on day 43; assay type: functional, organism-based
Mus musculus [9] = assay: Anti-colitis activity against DSS-induced C57BL/6 mouse model of chronic relapsing colitis assessed as reduction in stool consistency score at 0.15 mg/kg, po administered once daily for 30 days starting from day 13 post DSS-challenge cotreated with 20 mg/kg berberine measured on day 24; assay type: functional, organism-based
Mus musculus [10] = assay: Anti-colitis activity against DSS-induced C57BL/6 mouse model of chronic relapsing colitis assessed as reduction in stool bleeding at 0.15 mg/kg, po administered once daily for 30 days starting from day 13 post DSS-challenge cotreated with 20 mg/kg berberine and measured on day 38; assay type: functional, organism-based
Mus musculus [11] = assay: Anti-colitis activity against DSS-induced C57BL/6 mouse model of chronic relapsing colitis assessed as reversal of DSS-induced colon shortening at 0.3 mg/kg, po administered once daily for 30 days starting from day 13 post DSS-challenge; assay type: functional, organism-based
Mus musculus [12] = assay: Anti-colitis activity against DSS-induced C57BL/6 mouse model of subchronic relapsing colitis assessed as reversal of DSS-induced colon shortening at 0.15 mg/kg, po administered once daily for 30 days starting from day 13 post DSS-challenge cotreated with 20 mg/kg berberine; assay type: functional, organism-based
Mus musculus [13] = assay: Anti-colitis activity against DSS-induced C57BL/6 mouse model of subchronic relapsing colitis assessed as reduction in DSS-induced colon swelling at 0.15 mg/kg, po administered once daily for 30 days starting from day 13 post DSS-challenge cotreated with 20 mg/kg berberine; assay type: functional, organism-based
Mus musculus [14] = assay: Anti-colitis activity against DSS-induced C57BL/6 mouse model of chronic relapsing colitis assessed as reduction in DSS-induced spleen swelling at 0.3 mg/kg, po administered once daily for 30 days starting from day 13 post DSS-challenge; assay type: functional, organism-based
Mus musculus [15] = assay: (§2) Anti-colitis activity against DSS-induced C57BL/6 mouse model of chronic relapsing colitis assessed as reduction in DSS-induced multiple erosive lesions in colon at 0.3 mg/kg, po administered once daily for 30 days starting from day 13 post DSS-challenge; assay type: functional, organism-based
Mus musculus [16] = assay: as §2, with “inflammatory cell infiltration” for “multiple erosive lesions”, “DSS-challenge by hematoxylin and eosin staining based light microscopic analysis” for “DSS-challenge”; assay type: functional, organism-based
Mus musculus [17] = assay: Anti-colitis activity against DSS-induced C57BL/6 mouse model of chronic relapsing colitis assessed as reduction in DSS-induced multiple erosive lesions in colon at 0.15 mg/kg, po administered once daily for 30 days starting from day 13 post DSS-challenge cotreated with 20 mg/kg berberine by hematoxylin and eosin staining based light microscopic analysis; assay type: functional, organism-based
[18] = (§3) Toxicity in DSS-induced C57BL/6 mouse model of chronic relapsing colitis assessed as induction of abnormalities in liver at 0.3 mg/kg, po administered once daily for 30 days starting from day 13 post DSS-challenge by hematoxylin and eosin staining based light microscopic analysis; assay type: organism-based; details: in vivo, 720 h
[19] = Toxicity in DSS-induced C57BL/6 mouse model of chronic relapsing colitis assessed as induction of abnormalities in brain at 0.3 mg/kg, po administered once daily for 30 days starting from day 13 post DSS-challenge by hematoxylin and eosin staining based light microscopic analysis; assay type: organism-based; details: in vivo, 720 h
[20] = Toxicity in DSS-induced C57BL/6 mouse model of chronic relapsing colitis assessed as induction of abnormalities in lung at 0.3 mg/kg, po administered once daily for 30 days starting from day 13 post DSS-challenge by hematoxylin and eosin staining based light microscopic analysis; assay type: organism-based; details: in vivo, 720 h
[21] = as §3, with “heart” for “liver”, “0.15” for “0.3”, “DSS-challenge cotreated with 20 mg/kg berberine” for “DSS-challenge”; assay type: organism-based; details: in vivo, 720 h
Mus musculus [22] = assay: Antiinflammatory activity against DSS-induced C57BL/6 mouse model of subchronic relapsing colitis assessed as reduction in TNFalpha mRNA level at 0.3 mg/kg, po administered once daily for 14 days starting from day 5 post DSS-challenge by RT-qPCR analysis; assay type: functional, organism-based
Mus musculus [23] = assay: Effect on total STAT3 expression in DSS-induced C57BL/6 mouse model of subchronic relapsing colitis at 0.3 mg/kg, po administered once daily for 14 days starting from day 5 post DSS-challenge by Western blot analysis; assay type: ADME, organism-based; details: in vivo, 336 h
Mus musculus [24] = assay: Effect on total S1PR1 expression in DSS-induced C57BL/6 mouse model of subchronic relapsing colitis at 0.3 mg/kg, po administered once daily for 14 days starting from day 5 post DSS-challenge by Western blot analysis; assay type: ADME, organism-based; details: in vivo, 336 h
Mus musculus [25] = assay: Effect on total S1PR1 expression in DSS-induced C57BL/6 mouse model of subchronic relapsing colitis at 0.15 mg/kg, po administered once daily for 14 days starting from day 5 post DSS-challenge cotreated with 20 mg/kg berberine by Western blot analysis; assay type: ADME, organism-based; details: in vivo, 336 h
THP-1 = assay: Antiinflammatory activity in human THP1 cells assessed as reduction in LPS-induced TNFalpha mRNA level at 1 uM incubated for 1 hr followed by LPS challenge and measured after 4 to 6 hrs by q-PCR method; assay type: functional, cell-based
Mus musculus [26] = assay: Anti-colitis activity against DSS-induced C57BL/6 mouse model of subchronic relapsing colitis assessed as reduction in phosphorylated STAT3 level at 0.3 mg/kg, po administered once daily for 14 days starting from day 5 post DSS-challenge cotreated with 20 mg/kg berberine by Western blot analysis; assay type: functional, organism-based

CCCCCCCCc1ccc(CCC(N)(CO)CO)cc1.Cl [FINGOLIMOD HYDROCHLORIDE]
Activity (Mus musculus [1]): Active | Activity (Mus musculus [2]): Active | Activity (Mus musculus [3]): Active | Activity (Mus musculus [4]): Active | Activity (Mus musculus [5]): inactive | Activity (Mus musculus [6]): Active | Activity (Mus musculus [7]): Active | Activity (Mus musculus [8]): Active | Activity (Mus musculus [9]): Active | Activity (Mus musculus [10]): Active | Activity (Mus musculus [11]): Active | Activity (Mus musculus [12]): Active | Activity (Mus musculus [13]): inactive | Activity (Mus musculus [14]): Active | Activity (Mus musculus [15]): Active | Activity (Mus musculus [16]): Active | Activity (Mus musculus [17]): Active | Activity [18]: Non-Toxic | Activity [19]: Non-Toxic | Activity [20]: Non-Toxic | Activity [21]: Non-Toxic | Activity (Mus musculus [22]): Active | Activity (Mus musculus [23]): Non-Toxic | Activity (Mus musculus [24]): Non-Toxic | Activity (Mus musculus [25]): Non-Toxic | Activity (THP-1): Active | Activity (Mus musculus [26]): Active
